The record followed here is ChEMBL document CHEMBL1143167, “Monoaryl-substituted salicylaldoximes as ligands for estrogen receptor beta” (J Med Chem, 2008).

Assay [1] deals with T1, Estrogen receptor (Homo sapiens) (UniProt P03372).
T1 sequence (whole entry): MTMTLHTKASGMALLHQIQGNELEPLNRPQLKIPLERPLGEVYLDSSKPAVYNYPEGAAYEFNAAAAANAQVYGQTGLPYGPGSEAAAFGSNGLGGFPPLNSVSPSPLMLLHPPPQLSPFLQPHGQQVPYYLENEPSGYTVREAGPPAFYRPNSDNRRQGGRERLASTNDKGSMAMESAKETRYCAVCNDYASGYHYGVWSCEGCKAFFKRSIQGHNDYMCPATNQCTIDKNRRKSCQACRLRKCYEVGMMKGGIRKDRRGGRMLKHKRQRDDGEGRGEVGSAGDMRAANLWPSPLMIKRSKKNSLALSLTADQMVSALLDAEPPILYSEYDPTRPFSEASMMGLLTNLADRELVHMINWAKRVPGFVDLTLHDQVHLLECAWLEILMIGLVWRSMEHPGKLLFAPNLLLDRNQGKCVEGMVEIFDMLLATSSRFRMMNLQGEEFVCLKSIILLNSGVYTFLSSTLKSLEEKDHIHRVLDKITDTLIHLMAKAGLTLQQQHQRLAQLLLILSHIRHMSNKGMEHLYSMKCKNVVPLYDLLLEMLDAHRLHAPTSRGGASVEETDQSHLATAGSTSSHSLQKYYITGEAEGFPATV
Briefly: Displacement of [3H]estradiol from purified full length human ERalpha receptor relative to estradiol.

Assay [2] addresses Estrogen receptor beta (Homo sapiens) (UniProt Q92731). Briefly: Displacement of [3H]estradiol from purified full length human ERbeta receptor relative to estradiol.
The next assay is filed under the species Homo sapiens. In words: Selectivity ratio of human ERbeta receptor over human ERalpha receptor.

A value given as a limit tells only on which side of the number the result lay.

Chain of Estrogen receptor beta (Homo sapiens) (Q92731 whole entry): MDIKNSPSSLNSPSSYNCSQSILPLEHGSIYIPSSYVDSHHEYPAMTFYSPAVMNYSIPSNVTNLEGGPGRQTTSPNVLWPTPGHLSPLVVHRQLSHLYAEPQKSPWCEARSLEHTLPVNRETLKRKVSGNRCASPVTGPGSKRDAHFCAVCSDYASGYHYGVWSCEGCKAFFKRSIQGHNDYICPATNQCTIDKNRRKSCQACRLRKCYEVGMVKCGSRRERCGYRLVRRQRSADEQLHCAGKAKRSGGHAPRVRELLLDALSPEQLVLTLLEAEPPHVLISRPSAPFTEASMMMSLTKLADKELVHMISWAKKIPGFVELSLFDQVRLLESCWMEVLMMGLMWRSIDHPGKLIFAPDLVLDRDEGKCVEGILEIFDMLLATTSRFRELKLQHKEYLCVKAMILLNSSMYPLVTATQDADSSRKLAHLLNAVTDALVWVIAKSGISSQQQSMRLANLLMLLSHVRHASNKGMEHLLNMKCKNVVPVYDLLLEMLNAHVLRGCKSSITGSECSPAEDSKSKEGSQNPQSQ

As for `COc1ccc(-c2ccc(/C=N/O)c(O)c2)cc1`, the RBA in assay [1] was 0.01%; in assay [2], below 0.004%.

`N#Cc1c(-c2ccc(O)cc2)ccc(/C=N/O)c1O`: the RBA in assay [1] is 0.004%; in assay [2], 0.078%. The Ratio in the assay filed under Homo sapiens is 20.

Consider `O/N=C/c1ccc(-c2ccc(O)cc2)cc1O`, for which the RBA in assay [1] is 0.007%; in assay [2] it was 0.553%. The Ratio in the assay listed under Homo sapiens was determined as 79.

Turning to `O/N=C/c1ccc(-c2ccccc2)cc1O`, the RBA in assay [1] and in assay [2] was below 0.004% throughout.

Turning to `COc1ccc(-c2ccc(/C=N/O)c(O)c2C)cc1`, the figures for the RBA in assay [1] and in assay [2] were 0.005% and 0.007%, respectively.

With `Cc1c(-c2ccc(O)cc2)ccc(/C=N/O)c1O`, the RBA came out at 0.249% in assay [1] and 4.1% in assay [2]. In addition, the Ratio in the assay listed under Homo sapiens amounted to 16.
